Measurements as given in patent publication US9296723B2, “NAMPT inhibitors” (AbbVie Inc., priority 2012, dated 2016).

Legend:
[1] = molecular target: T1, NAMPT (Homo sapiens, UniProt P43490); test: Time-Resolved Fluorescence Resonance Energy Transfer (TR-FRET) Binding Assay of NAMPT; conditions: 6.8 nM NAMPT, 200 nM probe, equilibrated 3 hours, no substrates
Method in brief: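 Compound was mixed with enzyme, probe and antibody and equilibrated 3 h at room temperature. TR-FRET read at Ex 337 nm, Em 520/495 nm. Ratios were normalized to controls and fitted to a four-parameter logistic equation for IC50.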

[2] = molecular target: T1, NAMPT; test: TR-FRET Binding Assay of NAMPT with PRPP; conditions: 2 nM NAMPT, 2 nM probe, 200 µM PRPP and 2.5 mM ATP, equilibrated 16 hours
Method in brief: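 TR-FRET probe displacement with 2 nM NAMPT, 2 nM probe and 1 nM Tb-anti-His antibody in the presence of 200 µM PRPP and 2.5 mM ATP, 2% DMSO (all final). Equilibrated 16 hours before reading to permit possible enzymatic modification of compounds.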

[3] = tested on: PC3 cells; test: NAMPT Cell Proliferation Assay (Cell Titer Glo); assay type: cell-based; conditions: Homo sapiens, PC-3, 120 h, incubated 5 days, cell viability
Method in brief: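 PC3 cells (500/well, RPMI with 10% heat-inactivated FBS) were exposed to 10-fold compound dilutions from […] for 5 days at 37 °C, 5% CO2. Viability was read with Cell Titer Glo; IC50 from sigmoidal fit of percent inhibition.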

T1 sequence (P43490 whole entry): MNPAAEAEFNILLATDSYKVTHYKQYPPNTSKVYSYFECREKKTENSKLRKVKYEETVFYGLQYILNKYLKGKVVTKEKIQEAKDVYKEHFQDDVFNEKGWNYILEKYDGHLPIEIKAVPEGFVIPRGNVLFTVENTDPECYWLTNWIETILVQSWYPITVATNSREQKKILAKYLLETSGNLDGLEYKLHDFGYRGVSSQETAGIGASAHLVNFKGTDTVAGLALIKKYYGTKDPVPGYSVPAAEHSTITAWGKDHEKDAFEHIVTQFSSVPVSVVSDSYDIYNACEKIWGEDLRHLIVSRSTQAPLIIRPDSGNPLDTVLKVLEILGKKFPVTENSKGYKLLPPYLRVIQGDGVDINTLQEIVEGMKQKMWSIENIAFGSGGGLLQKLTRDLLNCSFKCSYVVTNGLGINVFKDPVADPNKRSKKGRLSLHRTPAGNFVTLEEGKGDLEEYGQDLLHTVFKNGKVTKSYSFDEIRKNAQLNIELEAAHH

`CCC(=O)N1CC[C@@H](Oc2ccc(NC(=O)N3CC(c4cccnc4)C3)cc2)C1` [Example 319, N-(4-{[(3R)-1-propanoylpyrrolidin-3-yl]oxy}phenyl)-3-(pyridin-3-yl)azetidine-1-carboxamide] gave an IC50 [1] of 0.0706 µM, an IC50 [2] of 0.000426 µM and an IC50 [3] of 0.0307 µM.

In the case of `CC(C)C(C)C(=O)N1CC[C@@H](Oc2ccc(NC(=O)N3CC(c4cccnc4)C3)cc2)C1` (stereo partly drawn) [Example 335, N-(4-{[(3R)-1-(2,3-dimethylbutanoyl)pyrrolidin-3-yl]oxy}phenyl)-3-(pyridin-3-yl)azetidine-1-carboxamide], the IC50 [1] is reported as 0.0457 µM, the IC50 [2] is reported as 0.000495 µM and the IC50 [3] is reported as 0.0158 µM.

`O=C(Nc1ccc(C2CCN(C(=O)C3CC3)C2)cc1)N1CC(c2cccnc2)C1` (stereo not drawn) [Example 73, N-{4-[1-(cyclopropylcarbonyl)pyrrolidin-3-yl]phenyl}-3-(pyridin-3-yl)azetidine-1-carboxamide] was tested, and the IC50 [1] was 0.156 µM, the IC50 [2] was 0.000663 µM and the IC50 [3] was 0.0845 µM.

`CCC(C)CN1CC(c2ccc(NC(=O)N3CC(c4cccnc4)C3)cc2)C1` (stereo not drawn) [Example 255, N-{4-[1-(2-methylbutyl)azetidin-3-yl]phenyl}-3-(pyridin-3-yl)azetidine-1-carboxamide] gave an IC50 [1] of 0.271 µM, an IC50 [2] of 0.000173 µM and an IC50 [3] of 0.734 µM.

With `O=C(CC1CCCC1)N1CCC(c2ccc(NC(=O)N3CC(c4cccnc4)C3)cc2)C1` (stereo not drawn) [Example 261, N-{4-[1-(cyclopentylacetyl)pyrrolidin-3-yl]phenyl}-3-(pyridin-3-yl)azetidine-1-carboxamide] the IC50 [1] was 0.0335 µM, the IC50 [2] was 0.000194 µM and the IC50 [3] was 0.0713 µM.

Molecule `CC(C)CC(=O)N1CC[C@@H](Oc2ccc(NC(=O)N3CC(c4cccnc4)C3)cc2)C1` [Example 333, N-(4-{[(3R)-1-(3-methylbutanoyl)pyrrolidin-3-yl]oxy}phenyl)-3-(pyridin-3-yl)azetidine-1-carboxamide] has an IC50 [1] of 0.0561 µM, an IC50 [2] of 0.000416 µM and an IC50 [3] of 0.0224 µM.

`CCC(C)(C)C(=O)N1CCC(c2ccc(NC(=O)N3CC(c4cccnc4)C3)cc2)C1` (stereo not drawn) [Example 290, N-{4-[1-(2,2-dimethylbutanoyl)pyrrolidin-3-yl]phenyl}-3-(pyridin-3-yl)azetidine-1-carboxamide] was tested, and the IC50 [1] was 0.0111 µM, the IC50 [2] was 0.000224 µM and the IC50 [3] was 0.0103 µM.

Molecule `CC(C)(C)OC(=O)N1CCC(CCCCNC(=O)N2CC(c3cccnc3)C2)CC1` [Example 15, tert-butyl 4-[4-({[3-(pyridin-3-yl)azetidin-1-yl]carbonyl}amino)butyl]piperidine-1-carboxylate] has an IC50 [1] of 0.307 µM, an IC50 [2] of 0.000917 µM and an IC50 [3] of 0.0999 µM.

With `CCC(C)(C)C(=O)N1CC[C@@H](Oc2ccc(NC(=O)N3CC(c4cccnc4)C3)cc2)C1` [Example 330, N-(4-{[(3R)-1-(2,2-dimethylbutanoyl)pyrrolidin-3-yl]oxy}phenyl)-3-(pyridin-3-yl)azetidine-1-carboxamide] the IC50 [1] was 0.0219 µM, the IC50 [2] was 0.000364 µM and the IC50 [3] was 0.0123 µM.

In the case of `CCCN1CCC(c2ccc(NC(=O)N3CC(c4cccnc4)C3)cc2)CC1` [Example 241, N-[4-(1-propylpiperidin-4-yl)phenyl]-3-(pyridin-3-yl)azetidine-1-carboxamide], the IC50 [1] is reported as 0.359 µM, the IC50 [2] is reported as 0.000255 µM and the IC50 [3] is reported as 0.252 µM.

In the case of `CC(C)(C)OC(=O)N1CCC(c2ccc(NC(=O)N3CC(c4cccnc4Cl)C3)cc2)CC1` [Example 112, tert-butyl 4-[4-({[3-(2-chloropyridin-3-yl)azetidin-1-yl]carbonyl}amino)phenyl]piperidine-1-carboxylate], the IC50 [1] is reported as 0.0435 µM, the IC50 [2] is reported as 0.0459 µM and the IC50 [3] is reported as 0.906 µM.

For `O=C(CC1CCOCC1)N1CCC(Oc2ccc(NC(=O)N3CC(c4cccnc4)C3)cc2)CC1` [Example 2, 3-(pyridin-3-yl)-N-(4-{[1-(tetrahydro-2H-pyran-4-ylacetyl)piperidin-4-yl]oxy}phenyl)azetidine-1-carboxamide], the IC50 [1] was 0.125 µM, the IC50 [2] was 0.00037 µM and the IC50 [3] was 0.0349 µM.

Molecule `CCC(C)(C)C(=O)N1CC(c2ccc(NC(=O)N3CC(c4cccnc4)C3)cc2)C1` [Example 204, N-{4-[1-(2,2-dimethylbutanoyl)azetidin-3-yl]phenyl}-3-(pyridin-3-yl)azetidine-1-carboxamide] has an IC50 [1] of 0.0486 µM, an IC50 [2] of 0.000349 µM and an IC50 [3] of 0.0604 µM.

`O=C(Nc1ccc(OC2CN(C(=O)C3CC3)C2)cc1)N1CC(c2cccnc2)C1` [Example 140, N-(4-{[1-(cyclopropylcarbonyl)azetidin-3-yl]oxy}phenyl)-3-(pyridin-3-yl)azetidine-1-carboxamide] was tested, and the IC50 [1] was 0.043 µM, the IC50 [2] was 0.000181 µM and the IC50 [3] was 0.0263 µM.

Molecule `O=C(Nc1ccc(C2CCN(C(=O)c3nccs3)C2)cc1)N1CC(c2cccnc2)C1` (stereo not drawn) [Example 267, 3-(pyridin-3-yl)-N-{4-[1-(1,3-thiazol-2-ylcarbonyl)pyrrolidin-3-yl]phenyl}azetidine-1-carboxamide] has an IC50 [1] of 0.0225 µM, an IC50 [2] of 0.000297 µM and an IC50 [3] of 0.0178 µM.

For `CC(C)(C)CC(=O)N1CC[C@@H](Oc2ccc(NC(=O)N3CC(c4cccnc4)C3)cc2)C1` [Example 329, N-(4-{[(3R)-1-(3,3-dimethylbutanoyl)pyrrolidin-3-yl]oxy}phenyl)-3-(pyridin-3-yl)azetidine-1-carboxamide], the IC50 [1] was 0.0304 µM, the IC50 [2] was 0.000276 µM and the IC50 [3] was 0.0145 µM.

In the case of `O=C(Nc1ccc(C2CCN(C(=O)c3ccsc3)CC2)cc1)N1CC(c2cccnc2)C1` [Example 185, 3-(pyridin-3-yl)-N-{4-[1-(thiophen-3-ylcarbonyl)piperidin-4-yl]phenyl}azetidine-1-carboxamide], the IC50 [1] is reported as 0.00323 µM, the IC50 [2] is reported as 0.000228 µM and the IC50 [3] is reported as 0.00918 µM.
